How the values were obtained:
barnyardgrass [1] = test: Test A preemergence; type: in vivo, Echinochloa crus-galli; details: Echinochloa crus-galli, pre-emergence, 240 h, 0 to 100 scale where 0 is no effect and 100 is complete control, read-out: Plant response rating, Barnyardgrass
In short: (§1)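 Pre- and postemergence greenhouse screen. Soil: loam + sand. Spray carrier: solvent mixture, non-phytotoxic, with surfactant. Post timing at 1–2 leaves, height 2–10 cm. Readout: visual injury on a 0–100 scale roughly 10 days after application, untreated plants as reference.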

giant foxtail [2] = test: Test A preemergence; type: in vivo, Setaria faberii; details: Setaria faberi, pre-emergence, 240 h, 0 to 100 scale where 0 is no effect and 100 is complete control, read-out: Plant response rating, Foxtail, Giant
In short: as §1

pigweed [3] = test: Test A preemergence; type: in vivo, Amaranthus retroflexus; details: Amaranthus retroflexus, pre-emergence, 0 to 100 scale where 0 is no effect and 100 is complete control, read-out: Plant response rating, Pigweed
In short: as §1

pigweed [4] = test: Test A postemergence; type: in vivo, Amaranthus retroflexus; details: Amaranthus retroflexus, post-emergence
In short: as §1

sedge, umbrella = test: Test B flooded paddy test; type: in vivo, Cyperus difformis; details: Cyperus difformis, Flood, 250 g ai/ha; 0 to 100 scale where 0 is no effect and 100 is complete control; read-out: Plant response rating, Sedge, Umbrella
In short: (§2)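 2-leaf stage plants; pots flooded to 3 cm, compound added to paddy water, depth maintained. Greenhouse 13–15 d. Visual rating vs untreated controls, 0 (no effect) to 100 (complete control); dash = no result.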

barnyardgrass [5] = test: Test B flooded paddy test; type: in vivo, Echinochloa crus-galli; details: Echinochloa crus-galli; Flood, 250 g ai/ha; 0 to 100 scale where 0 is no effect and 100 is complete control; read-out: Plant response rating, Barnyardgrass
In short: as §2

blackgrass = test: Test C postemergence; type: in vivo, Alopecurus myosuroides; details: Alopecurus myosuroides, post-emergence
In short: (§3)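 Visual injury score versus untreated controls, 0 = no effect, 100 = complete control, taken 13 to 15 days after treatment in the greenhouse. Pre-emergence pots held loam/sand; post-emergence plants grew in sphagnum peat/vermiculite mix and were sprayed at the 1- to 4-leaf stage.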

Italian ryegrass = test: Test C postemergence; type: in vivo, Lolium multiflorum; details: Lolium multiflorum, post-emergence
In short: as §3

corn = test: Test C postemergence; type: in vivo, Zea mays; details: Zea mays, post-emergence
In short: as §3

large (Lg) crabgrass = test: Test C postemergence; type: in vivo, Digitaria sanguinalis; details: Digitaria sanguinalis, post-emergence
In short: as §3

giant foxtail [6] = test: Test C postemergence; type: in vivo, Setaria faberii; details: Setaria faberi, post-emergence
In short: as §3

johnsongrass = test: Test C postemergence; type: in vivo, Sorghum halepense; details: Sorghum halepense, post-emergence
In short: as §3

chickweed = test: Test C postemergence; type: in vivo, Stellaria media; details: Stellaria media, post-emergence
In short: as §3

[7] = 31 g ai/ha, visual, approximately 10 days

Compound `Fc1cccc(Oc2ncc(Cl)cn2)c1-n1cc(C(F)F)nn1` [Compound 141, 5-chloro-2-[2-[4-(difluoromethyl)-1H-1,2,3-triazol-1-yl]-3-fluorophenoxy]pyrimidine] has a pest or weed control at 31 g/ha (barnyardgrass [1]; [7]) of 90%, a pest or weed control at 125 g/ha (barnyardgrass [1]; 125 g ai/ha) of 100% and a pest or weed control at 31 g/ha (giant foxtail [2]; [7]) of 100%. The pest or weed control at 125 g/ha (giant foxtail [2]; 125 g ai/ha) was 100%, the pest or weed control at 125 g/ha (pigweed [3]; 125 g ai/ha) was 100% and the pest or weed control at 31 g/ha (pigweed [3]; 240 h, 31 g ai/ha, visual, approximately 10 days) was 100%. The pest or weed control at 31 g/ha (pigweed [4]; 31 g ai/ha, 0 to 100 scale, 0 no effect, 100 complete control, read-out: Plant response rating, Pigweed) was 100%, the pest or weed control at 125 g/ha (pigweed [4]; 240 h, 125 g ai/ha, 0 to 100 scale where 0 is no effect and 100 is complete control, read-out: Pigweed plant response rating) was 100% and the pest or weed control at 250 g/ha (sedge, umbrella) was 90%. The pest or weed control at 250 g/ha (barnyardgrass [5]) was 100%, the pest or weed control at 16 g/ha (blackgrass; 16 g ai/ha, postemergence, 0 is no effect, 100 is complete control, read-out: Plant response rating (0 to 100), Blackgrass) was 5% and the pest or weed control at 125 g/ha (blackgrass; 125 g ai/ha, postemergence, visual rating, scale 0 to 100 (0 no effect, 100 complete control), read-out: Plant response rating, Blackgrass) was 60%. For the same compound, the pest or weed control at 31 g/ha (blackgrass; Postemergence, 31 g ai/ha, scale 0 to 100 (0 no effect, 100 complete control), 13 to 15 days, read-out: Plant response rating, Blackgrass) was 35%, the pest or weed control at 62 g/ha (blackgrass; Postemergence, 62 g ai/ha, scale 0 to 100 (0 no effect, 100 complete control), read-out: Plant response rating, Blackgrass) was 35% and the pest or weed control at 16 g/ha (Italian ryegrass; 16 g ai/ha, postemergence, 0 is no effect, 100 is complete control, read-out: Plant response rating (0 to 100), Ryegrass, Italian) was 0%. For the same compound, the pest or weed control at 125 g/ha (Italian ryegrass; 125 g ai/ha, postemergence, visual rating, scale 0 to 100 (0 no effect, 100 complete control), read-out: Plant response rating, Ryegrass, Italian) was 40%, the pest or weed control at 62 g/ha (Italian ryegrass; Postemergence, 62 g ai/ha, scale 0 to 100 (0 no effect, 100 complete control), read-out: Plant response rating, Ryegrass, Italian) was 5% and the plant injury at 16 g/ha (corn; 16 g ai/ha, postemergence, 0 is no effect, 100 is complete control, read-out: Plant response rating (0 to 100), Corn) was 5%. For the same compound, the Corn plant response rating (crop injury, 0 = no effect, 100 = complete kill) at 125 g/ha (corn; 125 g ai/ha, postemergence, visual rating, scale 0 to 100 (0 no effect, 100 complete control)) was 20%, the Corn plant response rating (crop injury, 0 = no effect, 100 = complete kill) at 62 g/ha (corn; Postemergence, 62 g ai/ha, scale 0 to 100 (0 no effect, 100 complete control)) was 5% and the pest or weed control at 16 g/ha (large (Lg) crabgrass; 16 g ai/ha, postemergence, 0 is no effect, 100 is complete control, read-out: Plant response rating (0 to 100), Crabgrass, Large) was 5%. For the same compound, the pest or weed control at 125 g/ha (large (Lg) crabgrass; 125 g ai/ha, postemergence, visual rating, scale 0 to 100 (0 no effect, 100 complete control), read-out: Plant response rating, Crabgrass, Large) was 45%, the pest or weed control at 62 g/ha (large (Lg) crabgrass; Postemergence, 62 g ai/ha, scale 0 to 100 (0 no effect, 100 complete control), read-out: Plant response rating, Crabgrass, Large) was 10% and the pest or weed control at 16 g/ha (giant foxtail [6]; 16 g ai/ha, postemergence, 0 is no effect, 100 is complete control, read-out: Plant response rating (0 to 100), Foxtail, Giant) was 10%. It also gave a pest or weed control at 125 g/ha (giant foxtail [6]; 125 g ai/ha, postemergence, visual rating, scale 0 to 100 (0 no effect, 100 complete control), read-out: Plant response rating, Foxtail, Giant) of 70%, a pest or weed control at 62 g/ha (giant foxtail [6]; Postemergence, 62 g ai/ha, scale 0 to 100 (0 no effect, 100 complete control), read-out: Plant response rating, Foxtail, Giant) of 45% and a pest or weed control at 16 g/ha (johnsongrass; 16 g ai/ha, postemergence, 0 is no effect, 100 is complete control, read-out: Plant response rating (0 to 100), Johnsongrass) of 5%. The pest or weed control at 125 g/ha (johnsongrass; 125 g ai/ha, postemergence, visual rating, scale 0 to 100 (0 no effect, 100 complete control), read-out: Plant response rating, Johnsongrass) was 30%, the pest or weed control at 62 g/ha (johnsongrass; Postemergence, 62 g ai/ha, scale 0 to 100 (0 no effect, 100 complete control), read-out: Plant response rating, Johnsongrass) was 10% and the pest or weed control at 16 g/ha (chickweed; 16 g ai/ha, postemergence, 0 is no effect, 100 is complete control, read-out: Plant response rating (0 to 100), Chickweed) was 70%. The pest or weed control at 125 g/ha (chickweed; 125 g ai/ha, postemergence, visual rating, scale 0 to 100 (0 no effect, 100 complete control), read-out: Plant response rating, Chickweed) was 100% and the pest or weed control at 62 g/ha (chickweed; Postemergence, 62 g ai/ha, scale 0 to 100 (0 no effect, 100 complete control), read-out: Plant response rating, Chickweed) was 95%.
